Reference: patent US4520022A, “Substituted vinyl cephalosporins” (priority 1983, dated 1985)
Values after ≈ are worked out from the molar mass of the structure shown. Where two headings read alike, the source gives them in different places.

How the values were obtained:
[1] = mouse, in vivo
[2] = tested on: S. aureus BX-1633; test: Protective dose PD50, mice infected with lethal inoculum, oral treatment, S. aureus BX-1633; format: in vivo; details: Staphylococcus aureus, BX1633, 120 h
[3] = tested on: E. coli Juhl; test: Protective dose, mice infected with lethal inoculum, oral treatment, E. coli Juhl; format: in vivo
[4] = tested on: S. pyogenes; test: In vitro activity against Streptococci (MIC), S. pyogenes; format: cell-based; details: Streptococcus pyogenes, Compound 9 lot 2
[5] = tested on: C. perfringens A9645; test: microbe, parasite or virus in culture; format: cell-based; details: Clostridium perfringens
[6] = tested on: S. aureus Smith; test: Protective dose, mice infected with lethal inoculum, oral treatment, S. aureus Smith; format: in vivo; details: Staphylococcus aureus, po, 120 h, oral, read-out: Protective dose (PD50), S. aureus Smith
[7] = tested on: B. fragilis; test: In vitro activity against anaerobes (MIC), B. fragilis; format: cell-based; details: Bacteroides fragilis
[8] = tested on: N. meningitidis; test: In vitro activity against Neisseria (MIC), N. meningitidis; format: cell-based
[9] = tested on: S. pyogenes A20201; test: Protective dose PD50, mice infected with lethal inoculum, oral treatment, S. pyogenes A20201; format: in vivo; details: Streptococcus pyogenes, 120 h
[10] = tested on: Gp Ia: S. aureus Smith A9537, A9497, Terajima, A9534, A9601; details: Staphylococcus aureus
[11] = tested on: Gp Ia, Gp Ib, Gn Ia organisms of Table 2; test: Test medium comparison, agar dilution MIC, Mueller-Hinton agar versus nutrient agar
[12] = tested on: Gp, rods; Gp, cocci; test: microbe, parasite or virus in culture; format: cell-based, C. difficile; C. perfringens; P. acnes; P. anaerobius; details: read-out: MIC, Geometric Mean
[13] = tested on: P. acnes A21933; test: In vitro activity against anaerobes (MIC), P. acnes; format: cell-based; details: Cutibacterium acnes; Gp cocci; P. acnes A21933; read-out: MIC
[14] = tested on: H. influenzae; test: In vitro activity against Haemophilis (MIC), H. influenzae; format: cell-based; details: Haemophilus influenzae, Compound 9 lot 2
[15] = tested on: S. pneumoniae; test: In vitro activity against Streptococci (MIC), S. pneumoniae; format: cell-based; details: Streptococcus pneumoniae, Compound 9 lot 2
[16] = tested on: Gp Ib: S. aureus 193, BX-1633-2 A9606, A15092, Russell, A9602; details: Staphylococcus aureus
[17] = in vivo; details: mouse; for half-life: T1/2
[18] = tested on: P. mirabilis A9554; test: Protective dose PD50, mice infected with lethal inoculum, oral treatment, P. mirabilis A9554; format: in vivo
[19] = tested on: P. anaerobius A21905; test: In vitro activity against anaerobes (MIC), P. anaerobius; format: cell-based; details: Peptostreptococcus anaerobius; Gp cocci; P. anaerobius A21905; read-out: MIC
[20] = tested on: N. gonorrheae; test: In vitro activity against Neisseria (MIC), N. gonorrheae; format: cell-based
[21] = tested on: H. influenza A9729; test: Protective dose PD50, mice infected with lethal inoculum, oral treatment, H. influenza A9729; format: in vivo; details: Mus musculus, 120 h
Source text: The structure activity correlations drawn from the foregoing in vitro studies are born out by the results of in vivo studies in mice. Table 4 is a tabulation of the protective doses for mice infected with a lethal inoculum of a bacteria. Two different bacteria were employed in the studies, one a Gram+ organism and the other a Gram- organism. The protective dose (PD50) is that dose which when administered to a group of infected mice results in 50% survival after five days. Normally untreated infected mice die within three days following injection of the lethal inoculum.
Protective Dose PD50 for Mice Infected with Lethal Inoculum

Q: For `C/C=C\C1=C(C(=O)O)N2C(=O)[C@@H](NC(=O)[C@H](N)c3ccc(O)cc3)[C@H]2SC1` [Compound 9, 7β-[D-2-amino-(p-hydroxyphenyl)acetamido]-3-[(Z)-1-propen-1-yl]-3-cephem-4-carboxylic Acid], which T1/2 ([1]; im, 20 mg/kg) is on record?
A: 0.48

Q: And the T1/2 ([1]; po, 20 mg/kg)?
A: 1.7

Q: And the T1/2 ([1]; po, 100 mg/kg)?
A: 1.3 h

Q: What about the ED50 [2] of the same molecule?
A: 2.2 mg/kg

Q: What about the ED50 ([3]; Escherichia coli, po, 120 h, oral, 50% survival for 5 days, groups of 5 mice, read-out: Protective dose (PD50), E. coli Juhl) of the same molecule?
A: 1.2 mg/kg

Q: What about the “activity against the Gram- infection” value ([3]; in words) of the same molecule?
A: more active against the Gram- infection

Q: What about the MIC ([4]; S. pyogenes A9604, read-out: MIC) of the same molecule?
A: 0.05 µg/mL (≈ 0.128 µM)

Q: And the MIC ([4]; S. pyogenes A15040, read-out: MIC)?
A: 0.05 µg/mL (≈ 0.128 µM)

Q: What about the MIC ([4]; S. pyogenes A20065, read-out: MIC) of the same molecule?
A: 0.05 µg/mL (≈ 0.128 µM)

Q: And the MIC ([4]; S. pyogenes A20201, read-out: MIC)?
A: 0.1 µg/mL (≈ 0.257 µM)

Q: What about the MIC ([4]; S. pyogenes Dick, read-out: MIC) of the same molecule?
A: 0.05 µg/mL (≈ 0.128 µM)

Q: And the MIC ([4]; S. pyogenes S-23, Dick, A9604, A20065, A15040, read-out: MIC, Geometric Mean)?
A: 0.05 µg/mL (≈ 0.128 µM)

Q: And the MIC ([4]; S. pyogenes S-23, read-out: MIC)?
A: 0.05 µg/mL (≈ 0.128 µM)

Q: And the MIC [5]?
A: 0.4 µg/mL (≈ 1.03 µM)

Q: And the ED50 ([6]; 50% survival for 5 days, groups of 5 mice)?
A: 0.14 mg/kg

Q: What about the ED50 ([6]; separate run of Compound 42 and BMY28100, cephalexin/cefadroxil controls not available) of the same molecule?
A: 0.16 mg/kg

Q: What about the MIC ([7]; B. fragilis A20928-1, A21900, A20935, β-lactamase (-), read-out: MIC, Geometric Mean) of the same molecule?
A: 3.2 µg/mL (≈ 8.22 µM)

Q: What about the MIC ([7]; B. fragilis A20928-1, β-lactamase (-), read-out: MIC) of the same molecule?
A: 0.8 µg/mL (≈ 2.05 µM)

Q: What about the MIC ([7]; B. fragilis A20935, β-lactamase (-), read-out: MIC) of the same molecule?
A: 0.8 µg/mL (≈ 2.05 µM)

Q: What about the MIC ([7]; B. fragilis A21900, β-lactamase (-), clindamycin resistant, read-out: MIC) of the same molecule?
A: 50 µg/mL (≈ 128 µM)

Q: And the MIC ([7]; B. fragilis A22021, β-lactamase (+), read-out: MIC)?
A: > 100 µg/mL

Q: And the MIC ([7]; B. fragilis A22053, A22021, A22693, β-lactamase (+), read-out: MIC, Geometric Mean)?
A: > 100 µg/mL

Q: What about the MIC ([7]; B. fragilis A22053, β-lactamase (+), read-out: MIC) of the same molecule?
A: 50 µg/mL (≈ 128 µM)

Q: And the MIC ([7]; B. fragilis A22533, β-lactamase (+), read-out: MIC)?
A: > 100 µg/mL

Q: And the MIC ([7]; B. fragilis A22693, β-lactamase (+), read-out: MIC)?
A: > 100 µg/mL

Q: And the MIC ([7]; B. fragilis A22695, A22533, β-lactamase (+), read-out: MIC, Geometric Mean)?
A: > 100 µg/mL

Q: What about the MIC ([7]; B. fragilis A22695, β-lactamase (+), read-out: MIC) of the same molecule?
A: > 100 µg/mL

Q: What about the MIC ([8]; N. meningitidis A21487, Compound 9 lot 2) of the same molecule?
A: 0.8 µg/mL (≈ 2.05 µM)

Q: What about the MIC ([8]; N. meningitidis A21496, Compound 9 lot 2) of the same molecule?
A: 0.8 µg/mL (≈ 2.05 µM)

Q: And the MIC ([8]; N. meningitidis A21497, Compound 9 lot 2)?
A: 0.8 µg/mL (≈ 2.05 µM)

Q: What about the MIC ([8]; Neisseria meningitidis, read-out: MIC) of the same molecule?
A: 0.8 µg/mL (≈ 2.05 µM)

Q: And the MIC ([8]; Neisseria meningitidis, read-out: MIC, Geometric Mean)?
A: 0.8 µg/mL (≈ 2.05 µM)

Q: What about the ED50 [9] of the same molecule?
A: 0.11 mg/kg

Q: What about the MIC ([10]; read-out: Minimum Inhibitory Concentration Gp Ia, Mueller-Hinton agar, run 1, average of five organisms) of the same molecule?
A: 0.23 µg/mL (≈ 0.591 µM)

Q: What about the MIC ([10]; read-out: Minimum Inhibitory Concentration Gp Ia, Mueller-Hinton agar, run 2, average of five organisms) of the same molecule?
A: 0.35 µg/mL (≈ 0.899 µM)

Q: What about the MIC ([10]; read-out: Minimum inhibitory Concentration Gp Ia, Test Medium Comparison, A: Mueller-Hinton agar, average values) of the same molecule?
A: 0.23 µg/mL (≈ 0.591 µM)

Q: What about the MIC ([10]; read-out: Minimum inhibitory Concentration Gp Ia, Test Medium Comparison, B: Nutrient agar, average values) of the same molecule?
A: 0.17 µg/mL (≈ 0.437 µM)

Q: What about the “difference in MIC between the two media” value [11] of the same molecule?
A: less than three fold

Q: And the MIC [12]?
A: 0.95 µg/mL (≈ 2.44 µM)

Q: What about the MIC [13] of the same molecule?
A: 0.4 µg/mL (≈ 1.03 µM)

Q: What about the MIC ([14]; H. influenzae A9729, read-out: MIC) of the same molecule?
A: 0.8 µg/mL (≈ 2.05 µM)

Q: What about the MIC ([14]; H. influenzae A9833, read-out: MIC) of the same molecule?
A: 0.8 µg/mL (≈ 2.05 µM)

Q: What about the MIC ([14]; H. influenzae A20177, read-out: MIC) of the same molecule?
A: 0.8 µg/mL (≈ 2.05 µM)

Q: And the MIC ([14]; H. influenzae A20193, read-out: MIC)?
A: 0.8 µg/mL (≈ 2.05 µM)

Q: What about the MIC ([14]; H. influenzae A21523, read-out: MIC) of the same molecule?
A: 0.8 µg/mL (≈ 2.05 µM)

Q: And the MIC ([14]; H. influenzae A22482, read-out: MIC)?
A: 0.8 µg/mL (≈ 2.05 µM)

Q: What about the MIC ([14]; H. influenzae A22483, read-out: MIC) of the same molecule?
A: 0.8 µg/mL (≈ 2.05 µM)

Q: And the MIC ([14]; H. influenzae, seven strains above, read-out: MIC, Geometric Mean)?
A: 0.8 µg/mL (≈ 2.05 µM)

Q: What about the MIC ([15]; S. pneumoniae A9585, read-out: MIC) of the same molecule?
A: 0.2 µg/mL (≈ 0.514 µM)

Q: And the MIC ([15]; S. pneumoniae A15069, read-out: MIC)?
A: 0.2 µg/mL (≈ 0.514 µM)

Q: What about the MIC ([15]; S. pneumoniae A20759, read-out: MIC) of the same molecule?
A: 0.2 µg/mL (≈ 0.514 µM)

Q: And the MIC ([15]; S. pneumoniae Type I, read-out: MIC)?
A: 0.2 µg/mL (≈ 0.514 µM)

Q: And the MIC ([15]; S. pneumoniae Type II, I, III, A9585, A15069, read-out: MIC, Geometric Mean)?
A: 0.2 µg/mL (≈ 0.514 µM)

Q: And the MIC ([15]; S. pneumoniae Type II, read-out: MIC)?
A: 0.2 µg/mL (≈ 0.514 µM)

Q: What about the MIC ([15]; S. pneumoniae Type III, read-out: MIC) of the same molecule?
A: 0.2 µg/mL (≈ 0.514 µM)

Q: What about the MIC ([16]; read-out: Minimum Inhibitory Concentration Gp Ib, Mueller-Hinton agar, run 1, average of five organisms) of the same molecule?
A: 0.92 µg/mL (≈ 2.36 µM)

Q: And the MIC ([16]; read-out: Minimum Inhibitory Concentration Gp Ib, Mueller-Hinton agar, run 2, average of five organisms)?
A: 0.8 µg/mL (≈ 2.05 µM)

Q: And the MIC ([16]; read-out: Minimum inhibitory Concentration Gp Ib, Test Medium Comparison, A: Mueller-Hinton agar, average values)?
A: 0.92 µg/mL (≈ 2.36 µM)

Q: And the MIC ([16]; read-out: Minimum inhibitory Concentration Gp Ib, Test Medium Comparison, B: Nutrient agar, average values)?
A: 0.35 µg/mL (≈ 0.899 µM)

Q: And the Cmax ([17]; im, 20 mg/kg)?
A: 28000 ng/mL

Q: What about the half-life ([17]; im, 20 mg/kg) of the same molecule?
A: 0.88 h

Q: And the AUC ([17]; po, 20 mg/kg, AUC*)?
A: 26000 ng·h/mL

Q: And the Cmax ([17]; po, 20 mg/kg)?
A: 15000 ng/mL

Q: What about the half-life ([17]; po, 20 mg/kg) of the same molecule?
A: 1.9 h

Q: What about the AUC ([17]; po, 100 mg/kg, AUC) of the same molecule?
A: 106000 ng·h/mL

Q: And the Cmax ([17]; po, 100 mg/kg)?
A: 56000 ng/mL

Q: What about the half-life ([17]; po, 100 mg/kg) of the same molecule?
A: 1.9 h

Q: And the “Protective Dose PD50” value [18]?
A: 1.8

Q: And the MIC [19]?
A: 0.8 µg/mL (≈ 2.05 µM)

Q: What about the MIC ([20]; N. gonorrheae A20142, Compound 9 lot 2) of the same molecule?
A: 0.8 µg/mL (≈ 2.05 µM)

Q: What about the MIC ([20]; N. gonorrheae A20143, Compound 9 lot 2) of the same molecule?
A: 0.8 µg/mL (≈ 2.05 µM)

Q: And the MIC ([20]; N. gonorrheae A20154, Compound 9 lot 2)?
A: 0.8 µg/mL (≈ 2.05 µM)

Q: And the MIC ([20]; N. gonorrheae A20155, Compound 9 lot 2)?
A: 0.8 µg/mL (≈ 2.05 µM)

Q: What about the MIC ([20]; read-out: MIC) of the same molecule?
A: 0.8 µg/mL (≈ 2.05 µM)

Q: And the MIC ([20]; read-out: MIC, Geometric Mean)?
A: 0.8 µg/mL (≈ 2.05 µM)

Q: What about the ED50 [21] of the same molecule?
A: 1.8 mg/kg
